# Tests used:
# [1] = anti-singlet-oxygen activity: deactivation of singlet oxygen, luminescence at 1270 nm, Stern-Volmer type analysis; format: physicochemical; settings: for (kr + kq), sum of the rate constants for the chemical reaction and for the physical inhibition of singlet oxygen: singlet oxygen generated by irradiating Ru(bipy)3Cl at 437 nm in deuterated methanol, luminescence at 1270 nm
# From the text: The anti-singlet-oxygen activity of the compound of Example 1 was compared with that of N-octanoyl-β-alanyl-L-histidine (referred to as compound A) of the prior art, according to the following principle, which is also described in Pure & Appl. Chem., vol. 62, No. 8, 1467-1476 (1990).
# In all the experiments, singlet oxygen was generated by irradiating at 437 nm Ru(bipy)3Cl (tris(2,2′-bipyridyl)ruthenium chloride hexahydrate) dissolved in deuterated methanol.
# The sum of the physical inhibition constants (kq) and chemical reaction constants (kr) of singlet oxygen with the test compounds was determined.
# The results for the deactivation of singlet oxygen can be analysed by measuring the luminescence (infrared emission) of singlet oxygen at 1270 nm, and by monitoring the kinetics of disappearance of oxygen.
# The exploitation of the results is based on the Stern-Volmer type analysis principle: the signal obtained is measured in the absence (So) and in the presence (S) of the test compound, at various concentrations in the solution. The ratio So/S makes it possible to determine the value of (kr+kq) according to the following relationship:
# [P] denotes the concentration of test compound in the solution, φo denotes the quantic yield of the emission in the absence of compound, φ denotes the quantic yield of the emission in the presence of compound, τo denotes the lifetime of singlet oxygen in deuterated methanol (270 μs), kr+kq denotes the sum of the rate constants for the chemical reaction and for the physical inhibition of singlet oxygen.
SMILES,"(kr + kq), sum of the rate constants for the chemical reaction and for the physical inhibition of singlet oxygen [1]",anti-singlet-oxygen activity compared with compound A of the prior art ([1]; comparison of (kr+kq) in deuterated methanol),melting point
"CCCCCCCC(=O)NCCC(=O)N[C@@H](Cc1c[nH]cn1)C(=O)O [Compound A, N-octanoyl-β-alanyl-L-histidine, reference compound]",7.4 × 10^5 ± 0.4 1.mol^−1.s^−1,,
"CCCCCCCCOC(=O)NCCC(=O)N[C@@H](Cc1c[nH]cn1)C(=O)O [Example 1, N-octyloxycarbonyl-β-alanyl-L-histidine]",8.8 × 10^6 ± 0.3 1.mol^−1.s^−1,significantly higher anti-singlet-oxygen activity,188 to 190 °C
"CCCCCCCCCCCCOC(=O)NCCC(=O)N[C@@H](Cc1c[nH]cn1)C(=O)O [Example 2, N-dodecyloxycarbonyl-β-alanyl-L-histidine]",,,168 to 172 °C
